From PubChem BioAssay AID330 (DTP/NCI, 2004)
Values joined by “and” are separate entries in the source; they are usually repeats but may differ in a detail not shown here. Equal values may be shown once. Inconclusive results and toxic doses are left out. How the source made its calls: active means survival T/C of 150% or more; inactive means T/C below 125% in these data.

Test system: P388 leukemia ip, CD2F1 mice, survival T/C
Assay: NCI In Vivo Anticancer Drug Screen. Data for tumor model P388 Leukemia (intraperitoneal) in CD2F1 (CDF1) mice
Details: endpoint: median survival time, higher = longer survival
In short: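 Mice carrying the transplanted tumor received test compound or vehicle. Survival was recorded in each group, and the value is the treated-group measurement divided by that of the vehicle-treated control group.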

[1] = dose: 50.0 mg/kg/injection, schedule: Q01DX009 (ip), vehicle: suspension in saline
[2] = dose: 100.0 mg/kg/injection, schedule: Q01DX009 (ip), vehicle: suspension in saline
[3] = dose: 50.0 mg/kg/injection, schedule: Q01DX009 (ip), vehicle: saline with Tween-80
[4] = dose: 100.0 mg/kg/injection, schedule: Q01DX009 (ip), vehicle: saline with Tween-80
[5] = dose: 50.0 mg/kg/injection, schedule: Q01DX005 (ip), vehicle: saline with Tween-80
[6] = dose: 200.0 mg/kg/injection, schedule: Q01DX009 (ip), vehicle: saline with Tween-80

Measured: T/C

CC(C)C(Br)C(=O)NCC(=O)O (configuration not stated)
inactive: dose: 100.0 mg/kg/injection, schedule: Q04DX003 (ip), vehicle: saline with Tween-80 100 % of control | dose: 200.0 mg/kg/injection, schedule: Q04DX003 (ip), vehicle: saline with Tween-80 95 % of control | dose: 400.0 mg/kg/injection, schedule: Q04DX003 (ip), vehicle: saline with Tween-80 100 % of control

FC(F)(F)c1ccc(NC(=S)SCc2ccc3c(c2)OCO3)cc1
inactive: [1] 98 % of control | [2] 93 % of control

CCN(CC)C(=O)CCc1ccc(Cl)cc1
inactive: dose: 60.0 mg/kg/injection, schedule: Q01DX005 (ip), vehicle: Klucel (hydroxypropylcellulose) (HPC) 104 % of control | dose: 120.0 mg/kg/injection, schedule: Q01DX005 (ip), vehicle: Klucel (hydroxypropylcellulose) (HPC) 95 % of control | dose: 240.0 mg/kg/injection, schedule: Q01DX005 (ip), vehicle: Klucel (hydroxypropylcellulose) (HPC) 102 % of control

NNC(=O)CCCO
inactive: dose: 50.0 mg/kg/injection, schedule: Q04DX003 (ip), vehicle: saline 105 % of control | dose: 100.0 mg/kg/injection, schedule: Q04DX003 (ip), vehicle: saline 98 % of control | dose: 200.0 mg/kg/injection, schedule: Q04DX003 (ip), vehicle: saline 103 % of control | dose: 400.0 mg/kg/injection, schedule: Q04DX003 (ip), vehicle: saline 105 % of control

CNC(=O)O/N=C/c1ccccc1-c1ccccc1
inactive: [3] 97 % of control | [4] 86 % of control

COc1cccc2c1C(=O)c1c(O)c3c(c(O)c1C2=O)CC(=O)CC3OC1CC(NC(=O)C(F)(F)F)C(O)C(C)O1 (configuration not stated)
inactive: dose: 1.56 mg/kg/injection, schedule: Q01DX009 (ip), vehicle: other 104 % of control | dose: 3.13 mg/kg/injection, schedule: Q01DX009 (ip), vehicle: other 102 % of control | dose: 6.25 mg/kg/injection, schedule: Q01DX009 (ip), vehicle: other 98 % of control | dose: 12.5 mg/kg/injection, schedule: Q01DX009 (ip), vehicle: other 90 % of control

CCOC(=O)C1=CNc2c(C#N)cnn2C1(C(=O)OCC)c1c[nH]c2ccccc12 (configuration not stated)
inactive: dose: 25.0 mg/kg/injection, schedule: Q01DX005 (ip), vehicle: Klucel (hydroxypropylcellulose) (HPC) 109 % of control | dose: 50.0 mg/kg/injection, schedule: Q01DX005 (ip), vehicle: Klucel (hydroxypropylcellulose) (HPC) 102 % of control | dose: 100.0 mg/kg/injection, schedule: Q01DX005 (ip), vehicle: Klucel (hydroxypropylcellulose) (HPC) 98 % of control | dose: 200.0 mg/kg/injection, schedule: Q01DX005 (ip), vehicle: Klucel (hydroxypropylcellulose) (HPC) 109 % of control

CS(=O)(=O)OC1COC(c2ccccc2)OC1C1OC(c2ccccc2)OCC1OS(C)(=O)=O (configuration not stated)
inactive: dose: 100.0 mg/kg/injection, schedule: Q01DX001 (ip), vehicle: Klucel (hydroxypropylcellulose) (HPC) 92 % of control | dose: 200.0 mg/kg/injection, schedule: Q01DX001 (ip), vehicle: Klucel (hydroxypropylcellulose) (HPC) 101 % of control | dose: 400.0 mg/kg/injection, schedule: Q01DX001 (ip), vehicle: Klucel (hydroxypropylcellulose) (HPC) 99 % of control

CCOC(=O)C1=C(/C=C/c2cccc(Cl)c2)O/C(=C/c2cccc(Cl)c2)C1=O
inactive: [5] 87 % of control | dose: 100.0 mg/kg/injection, schedule: Q01DX005 (ip), vehicle: saline with Tween-80 96 % of control | dose: 200.0 mg/kg/injection, schedule: Q01DX005 (ip), vehicle: saline with Tween-80 106 % of control

COc1cc(C[C@H]2c3cc(OC)c(OC)c(O)c3CCN2C)c(Oc2cc3c(cc2OC)-c2c(OC)c(OC)c(OC)c4c2C(C3)N(C)CC4)cc1OC (some centres not stated) (tested in a mixture with another compound)
inactive: dose: 8.75 mg/kg/injection, schedule: Q01DX005 (ip), vehicle: Klucel (hydroxypropylcellulose) (HPC) 103 % of control | dose: 17.5 mg/kg/injection, schedule: Q01DX005 (ip), vehicle: Klucel (hydroxypropylcellulose) (HPC) 99 % of control | dose: 35.0 mg/kg/injection, schedule: Q01DX005 (ip), vehicle: Klucel (hydroxypropylcellulose) (HPC) 96 % of control | dose: 70.0 mg/kg/injection, schedule: Q01DX005 (ip), vehicle: Klucel (hydroxypropylcellulose) (HPC) 94 % of control

CC1=NN(C(=O)c2ccncc2)C(=O)C1N=Nc1ccc(S(=O)(=O)Nc2nc(C)cc(C)n2)cc1 (configuration not stated)
inactive: [3] 104 % of control | [4] 95 % of control | [6] 95 % of control

S=C1NCC(c2ccc(Cl)cc2)[Se]1 (configuration not stated)
inactive: dose: 50.0 mg/kg/injection, schedule: Q01DX009 (ip), vehicle: DMSO 100 % of control | dose: 100.0 mg/kg/injection, schedule: Q01DX009 (ip), vehicle: DMSO 100 % of control

COc1ccc2c(c1[N+](=O)[O-])CCCC(Br)(Br)C2=O
inactive: dose: 50.0 mg/kg/injection, schedule: Q01DX009 (ip), vehicle: Klucel (hydroxypropylcellulose) (HPC) 107 % of control | dose: 100.0 mg/kg/injection, schedule: Q01DX009 (ip), vehicle: Klucel (hydroxypropylcellulose) (HPC) 107 % of control | dose: 200.0 mg/kg/injection, schedule: Q01DX009 (ip), vehicle: Klucel (hydroxypropylcellulose) (HPC) 108 % of control

CC(=O)OC1C2OC3C=C(C)CCC3(CO)C(C)(C1OC(C)=O)C21CO1 (configuration not stated)
inactive: dose: 0.5 mg/kg/injection, schedule: Q01DX009 (ip), vehicle: saline 108 % of control | dose: 1.0 mg/kg/injection, schedule: Q01DX009 (ip), vehicle: saline 100 % of control | dose: 2.0 mg/kg/injection, schedule: Q01DX009 (ip), vehicle: saline 106 % of control

CCCCCCCCCCCC(=O)NCCCCCC(=O)NC1C(C)OC(Nc2ncnc3nc[nH]c23)C(O)C1O (configuration not stated)
inactive: dose: 0.5 mg/kg/injection, schedule: Q01DX009 (ip), vehicle: water 99 % of control | dose: 1.0 mg/kg/injection, schedule: Q01DX009 (ip), vehicle: water 99 % of control | dose: 2.0 mg/kg/injection, schedule: Q01DX009 (ip), vehicle: water 115 % of control | dose: 4.0 mg/kg/injection, schedule: Q01DX009 (ip), vehicle: water 115 % of control | dose: 8.0 mg/kg/injection, schedule: Q01DX009 (ip), vehicle: distilled water + Tween-80 87 % of control | dose: 8.0 mg/kg/injection, schedule: Q01DX009 (ip), vehicle: water 117 % of control | dose: 16.0 mg/kg/injection, schedule: Q01DX009 (ip), vehicle: distilled water + Tween-80 89 % of control | dose: 32.0 mg/kg/injection, schedule: Q01DX009 (ip), vehicle: distilled water + Tween-80 114 % of control | dose: 64.0 mg/kg/injection, schedule: Q01DX009 (ip), vehicle: distilled water + Tween-80 123 % of control

CN(C)/C=N\c1ncnc2c1c(C#N)cn2C1OC(CO)C(O)C1O (configuration not stated)
inactive: dose: 7.5 mg/kg/injection, schedule: Q01DX005 (ip), vehicle: Klucel (hydroxypropylcellulose) (HPC) 104 % of control and 112 % of control | dose: 15.0 mg/kg/injection, schedule: Q01DX005 (ip), vehicle: Klucel (hydroxypropylcellulose) (HPC) 120 % of control and 121 % of control

O=C(NC(=S)c1ccc(Cl)cc1)Nc1ccccc1
inactive: dose: 25.0 mg/kg/injection, schedule: Q01DX009 (ip), vehicle: saline with Tween-80 99 % of control | [3] 94 % of control | [4] 99 % of control

FS(F)(F)(F)(F)c1cccc(NC(=S)SCc2ccc3c(c2)OCO3)c1
inactive: [1] 102 % of control | [2] 106 % of control | dose: 200.0 mg/kg/injection, schedule: Q01DX009 (ip), vehicle: suspension in saline 102 % of control

CC(=O)OCC(=O)[C@@]1(O)CC[C@H]2[C@@H]3C[C@@H](C)C4=CC(=O)C=C[C@]4(C)[C@H]3[C@@H](O)C[C@@]21C
inactive: [4] 100 % of control | [6] 100 % of control | dose: 400.0 mg/kg/injection, schedule: Q01DX009 (ip), vehicle: saline with Tween-80 100 % of control

COc1cc2c(cc1OC)CN1CCc3cc(OC)c(OC)cc3[C@@H]1C2
inactive: dose: 12.5 mg/kg/injection, schedule: Q01DX005 (ip), vehicle: saline with Tween-80 100 % of control | dose: 25.0 mg/kg/injection, schedule: Q01DX005 (ip), vehicle: saline with Tween-80 102 % of control | [5] 104 % of control and 98 % of control

CN1CCC2(CC1)N=C1CCN(C)CC1S2 (configuration not stated)
inactive: dose: 100.0 mg/kg/injection, schedule: Q01DX001 (ip), vehicle: saline with Tween-80 102 % of control | dose: 200.0 mg/kg/injection, schedule: Q01DX001 (ip), vehicle: saline with Tween-80 109 % of control

O=C(O)/C=C/c1csc(-c2ccc(Cl)cc2)n1
inactive: [3] 88 % of control | [4] 88 % of control | [6] 106 % of control

Cc1ccc(S(=O)(=O)c2cnc(N)nc2N)cc1
inactive: dose: 100.0 mg/kg/injection, schedule: Q01DX001 (ip), vehicle: saline 98 % of control | dose: 200.0 mg/kg/injection, schedule: Q01DX001 (ip), vehicle: saline 95 % of control | dose: 400.0 mg/kg/injection, schedule: Q01DX001 (ip), vehicle: saline 95 % of control

COC1/C=C/OC2(C)Oc3c(C)c(O)c4c(O)c(c(/C=N/N5C(C)CN(Cc6ccc(O)cc6)CC5C)c(O)c4c3C2=O)NC(=O)C(C)=C/C=C/C(C)C(O)C(C)C(O)C(C)C(OC(C)=O)C1C (configuration not stated)
inactive: [3] 95 % of control | [4] 99 % of control | [6] 96 % of control
